# Assay results reported in publication PMC3914891, “Pentacyclic Nitrofurans with In Vivo Efficacy and Activity against Nonreplicating Mycobacterium tuberculosis” (PLoS ONE, 2014).
# Tests used:
# [1] = system: 9a resistant clones of M. tuberculosis H37Rv; assay: microbe, parasite or virus in culture; type: cell-based, Mycobacterium tuberculosis
# [2] = system: H37Rv-T3; type: cell-based, M. tuberculosis
# [3] = system: H37Rv-5A1; type: cell-based, M. tuberculosis
# [4] = system: H37Rv-14A1; type: cell-based, M. tuberculosis
# [5] = system: M. tuberculosis H37Rv; type: cell-based, Mycobacterium tuberculosis
SMILES,"Cross resistance profile, Clone # 1 [1]","Cross resistance profile, Clone # 2 [1]","Cross resistance profile, Clone # 3 [1]","Cross resistance profile, Clone # 4 [1]","Cross resistance profile, Clone # 5 [1]","Cross resistance profile, Clone # 6 [1]","Cross resistance profile, Clone # 7 [1]","Cross resistance profile, Clone # 8 [1]","Cross resistance profile, Clone # 9 [1]","Cross resistance profile, Parent [1]",sensitivity of 9a resistant clones to the drug [1],also measured
O=[N+]([O-])c1ccc(C2=NOC(c3ccc(N4CCOCC4)cc3)C2)o1 (stereo not drawn) [Compound 2],R,R,R,R,R,R,R,R,R,S,–,–
"O=[N+]([O-])c1ccc(C2=NOC(c3ccc(N4CCC(Oc5ccc(OC(F)(F)F)cc5)CC4)cc3)C2)o1 (stereo not drawn) [Compound 9a, 3-(5-Nitrofuran-2-yl)-5-(4-(4-(4-(trifluoromethoxy)phenoxy)piperidin-1-yl)phenyl)-4,5-dihydroisoxazole]",R,R,R,R,R,R,R,R,R,S,–,"MIC [2]: 0.1 µg/mL; MIC [3]: 0.05 µg/mL; MIC [4]: 0.1 µg/mL; frequency of spontaneous resistance [5]: 3×10^−7; MIC ([1]; Mycobacterium tuberculosis, H37RV): > 3.13 µg/mL"
CC[C@@H](CO)NCCN[C@@H](CC)CO [Ethambutol],–,–,–,–,–,–,–,–,–,–,retained sensitivity,–
NNC(=O)c1ccncc1 [Isoniazid],–,–,–,–,–,–,–,–,–,–,retained sensitivity,–
CC(=O)NC[C@H]1CN(c2ccc(N3CCOCC3)c(F)c2)C(=O)O1 [Linezolid],–,–,–,–,–,–,–,–,–,–,retained sensitivity,–
C[C@]1(COc2ccc(N3CCC(Oc4ccc(OC(F)(F)F)cc4)CC3)cc2)Cn2cc([N+](=O)[O-])nc2O1 [OPC-67683],S,S,S,S,R,S,S,S,S,S,–,–
O=[N+]([O-])c1cn2c(n1)OC[C@@H](OCc1ccc(OC(F)(F)F)cc1)C2 [PA-824],S,S,S,S,R,S,S,S,S,S,–,MIC [2]: 100 µg/mL; MIC [3]: 50 µg/mL; MIC [4]: 50 µg/mL
CO[C@H]1/C=C/O[C@@]2(C)Oc3c(C)c(O)c4c(O)c(c(/C=N/N5CCN(C)CC5)c(O)c4c3C2=O)NC(=O)/C(C)=C\C=C\[C@H](C)[C@H](O)[C@@H](C)[C@@H](O)[C@@H](C)[C@H](OC(C)=O)[C@@H]1C [Rifampin],–,–,–,–,–,–,–,–,–,–,retained sensitivity,–
[H]/N=C(/N)N[C@H]1[C@H](O)[C@@H](O)[C@H](O[C@@H]2O[C@@H](C)[C@](O)(C=O)[C@H]2O[C@@H]2O[C@@H](CO)[C@H](O)[C@@H](O)[C@@H]2NC)[C@@H](N/C(N)=N\[H])[C@@H]1O [Streptomycin],–,–,–,–,–,–,–,–,–,–,retained sensitivity,–
CC1COc2c(N3CCN(C)CC3)c(F)cc3c(=O)c(C(=O)O)cn1c23 (stereo not drawn) [ofloxacin],–,–,–,–,–,–,–,–,–,–,retained sensitivity,–
